Ten molecules from patent publication US20250296959A1, “B7-H3 TARGETING PEPTIDES AND CONSTRUCTS THEREOF” (Mariana Oncology Inc., priority 2024, published 2025) can be followed below.

The target of one assay is T1, human 4lg B7-H3 (Homo sapiens, UniProt Q5ZPR3).
T1 sequence (Q5ZPR3 29-534): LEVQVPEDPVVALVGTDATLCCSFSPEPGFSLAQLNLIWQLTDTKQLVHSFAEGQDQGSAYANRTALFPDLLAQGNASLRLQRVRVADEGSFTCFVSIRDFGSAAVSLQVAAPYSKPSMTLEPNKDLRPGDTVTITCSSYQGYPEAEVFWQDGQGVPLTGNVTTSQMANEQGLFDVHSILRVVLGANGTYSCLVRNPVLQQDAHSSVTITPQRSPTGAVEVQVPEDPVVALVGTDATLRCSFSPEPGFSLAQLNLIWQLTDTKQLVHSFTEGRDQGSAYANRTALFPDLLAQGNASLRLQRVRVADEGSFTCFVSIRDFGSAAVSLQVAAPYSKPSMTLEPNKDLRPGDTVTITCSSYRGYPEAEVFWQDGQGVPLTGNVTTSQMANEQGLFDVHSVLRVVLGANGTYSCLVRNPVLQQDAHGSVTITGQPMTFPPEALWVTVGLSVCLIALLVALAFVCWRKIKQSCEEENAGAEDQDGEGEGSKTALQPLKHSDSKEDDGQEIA
Put plainly: Affinity determination by surface plasmon resonance (SPR) to 4Ig B7-H3. The conditions noted are these: SPR KD—37° C., 4Ig B7-H3; 37° C. flow cell temperature. In general terms: SPR reads the build-up and loss of mass on a sensor chip optically.

The next assay has as its target T2, 2Ig B7-H3 (Homo sapiens, UniProt Q5ZPR3).
T2 sequence (Q5ZPR3 29-316 isoform Q5ZPR3-2 limits assumed): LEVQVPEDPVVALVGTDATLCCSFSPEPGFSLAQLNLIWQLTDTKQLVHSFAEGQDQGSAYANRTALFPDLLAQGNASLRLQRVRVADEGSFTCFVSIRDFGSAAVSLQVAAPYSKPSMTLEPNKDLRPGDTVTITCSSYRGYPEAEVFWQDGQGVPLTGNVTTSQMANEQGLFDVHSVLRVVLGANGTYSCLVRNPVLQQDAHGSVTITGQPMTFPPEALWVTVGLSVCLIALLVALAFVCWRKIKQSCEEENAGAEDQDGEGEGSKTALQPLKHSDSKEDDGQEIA
Put plainly: SPR binding affinity to 2Ig B7-H3. The following applies: 37° C.; read-out: 2Ig B7-H3_KD (nM) at 37° C.

Another assay has as its target T3, B7-H3 on Calu-6 cells (human, UniProt Q5ZPR3 29-534).
T3 construct: whole, on cells
T3 sequence (looked up): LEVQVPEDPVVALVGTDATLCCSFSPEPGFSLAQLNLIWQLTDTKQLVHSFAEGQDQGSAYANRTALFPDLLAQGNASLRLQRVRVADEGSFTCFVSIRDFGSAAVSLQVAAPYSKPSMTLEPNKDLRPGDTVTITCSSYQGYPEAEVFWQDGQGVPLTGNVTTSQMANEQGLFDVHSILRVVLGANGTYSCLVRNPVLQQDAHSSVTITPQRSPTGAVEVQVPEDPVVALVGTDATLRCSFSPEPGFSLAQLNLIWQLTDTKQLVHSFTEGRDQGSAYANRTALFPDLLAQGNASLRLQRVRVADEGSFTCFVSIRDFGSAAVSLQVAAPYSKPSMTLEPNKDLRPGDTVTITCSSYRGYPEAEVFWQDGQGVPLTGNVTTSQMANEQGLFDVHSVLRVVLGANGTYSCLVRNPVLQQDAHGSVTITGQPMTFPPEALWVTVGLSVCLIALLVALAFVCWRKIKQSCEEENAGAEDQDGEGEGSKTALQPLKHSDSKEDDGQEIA
Put plainly: 177Lu-labelled peptide on Calu-6 cells, % cell associated fraction; B = 25<%<=50.

Starred links: 1 amine or outer side, 2 acyl side, 3 side chain; linkers in the order of their positions; H or OH if unused. Positions of bridges follow the written chain, without caps; N, C: chain ends. Non-standard residues stand in square brackets, D forms with d. Residues, ends and D or L forms follow the SMILES beside them. Groups on a side chain read outwards from the residue. Primed or numbered codes have the meaning given here. *: point of attachment. X6 = CSCC[C@H](NC(=O)c1ccc(CNC(=O)CN2CCN(CC(=O)O)CCN(CC(=O)O)CCN(CC(=O)O)CC2)cc1)C(=O)N[C@H](C(=O)N[C@@H](CCCCN*)C(=O)O)C(C)C; Ala(piperidin-4-yl) = O=C([C@H](CC1CCN([*:3])CC1)N[*:1])[*:2]; DOTA = O=C(O)CN1CCN(CC(=O)O)CCN(CC(=O)*)CCN(CC(=O)O)CC1; Trp(5-F) = N[C@@H](Cc1c[nH]c2ccc(F)cc12)C(=O)O; X1 = C[C@@H](c1ccccc1)[C@H](N[*:1])C(=O)[*:2]; PEG4′ = 4x 3-(2-aminoethoxy)propanoic acid; γGlu = O=C(O)[C@H](CCC(=O)[*:2])N[*:1]; 1Nal = N[C@@H](Cc1cccc2ccccc12)C(=O)O; Ala(4-THP) = N[C@@H](CC1CCOCC1)C(=O)O; Lys(Me2) = CN(C)CCCC[C@H](N)C(=O)O; Val(3-OH) = CC(C)(O)[C@H](N)C(=O)O; 4Pal = N[C@@H](Cc1ccncc1)C(=O)O; aThr = C[C@H](O)[C@H](N)C(=O)O; PEG4 = NCCOCCOCCOCCOCCC(=O)O; Tle = CC(C)(C)[C@H](N)C(=O)O; hLeu = CC(C)CC[C@H](N)C(=O)O Bounds are passed on as bounds.

As for `CC(=O)N[C@@H](CCC(C)C)C(=O)N[C@@H](Cc1ccc(O)cc1)C(=O)N[C@H]1CSSC[C@@H](C(=O)N[C@@H](Cc2c[nH]c3ccc(F)cc23)C(=O)N[C@@H](Cc2ccccc2)C(=O)N[C@H](C(=O)N[C@H](CCC(=O)O)C(N)=O)C(C)(C)O)NC(=O)[C@H](Cc2ccc(O)cc2)NC(=O)[C@H](C(C)C)NC(=O)[C@H](CC(=O)O)NC(=O)[C@H](CC2CCOCC2)NC(=O)[C@H](CC2CCN(C(=O)CC[C@H](NC(=O)CN3CCN(CC(=O)O)CCN(CC(=O)O)CCN(CC(=O)O)CC3)C(=O)O)CC2)NC(=O)CNC(=O)[C@H](C(C)(C)C)NC1=O` [compound 475, Ac-hLeu-Y-C-Tbg-G-Pip(gE-DOTA)Ala-ThpA-D-V-Y-C-5FW-F-hydroxyVal-dGlu-CONH2] (Ac-[hLeu]YC[Tle]G[Ala(piperidin-4-yl)]([γGlu-DOTA])[Ala(4-THP)]DVYC[Trp(5-F)]F[Val(3-OH)][dE]-NH2; disulfide 3-11), the figures for the Kd at human 4lg B7-H3 and at 2Ig B7-H3 were 1 to 10 nM and greater than 10000 nM, respectively.
As for `CC(=O)N[C@@H](CCC(C)C)C(=O)N[C@@H](Cc1ccc(O)cc1)C(=O)N[C@H]1CSSC[C@@H](C(=O)N[C@@H](Cc2c[nH]c3ccc(F)cc23)C(=O)N[C@H](C(=O)N[C@H](C(=O)N[C@H](C)C(=O)O)C(C)(C)O)[C@@H](C)c2ccccc2)NC(=O)[C@H](Cc2ccc(O)cc2)NC(=O)[C@H](C(C)C)NC(=O)[C@H](CC(=O)O)NC(=O)[C@H](CC2CCN(C(=O)CCOCCOCCOCCOCCNC(=O)CN3CCN(CC(=O)O)CCN(CC(=O)O)CCN(CC(=O)O)CC3)CC2)NC(=O)[C@H](CCCCN(C)C)NC(=O)CNC(=O)[C@H](C(C)(C)C)NC1=O` [compound 521, Ac-hLeu-Y-C-Tbg-G-Lys(Me)2-Pip(PEG4-DOTA)Ala-D-V-Y-C-5FW-[(2S, 3S)beta-Me-Phe]-hydroxyVal-dAla-COOH] (Ac-[hLeu]YC[Tle]G[Lys(Me2)][Ala(piperidin-4-yl)]([PEG4-DOTA])DVYC[Trp(5-F)][X1][Val(3-OH)][dA]-OH; disulfide 3-11), the figures for the Kd at human 4lg B7-H3 and at 2Ig B7-H3 were less than 1 nM and 260 nM, respectively.
On the same counts, the results for `CSCC[C@H](NC(=O)c1ccc(CNC(=O)CN2CCN(CC(=O)O)CCN(CC(=O)O)CCN(CC(=O)O)CC2)cc1)C(=O)N[C@H](C(=O)N[C@@H](CCCCNC(=O)CC[C@@H]1NC(=O)CNC(=O)[C@H](C(C)(C)C)NC(=O)[C@@H](NC(=O)[C@H](Cc2ccc(O)cc2)NC(=O)[C@H](CCC(C)C)NC(C)=O)CSSC[C@@H](C(=O)N[C@@H](Cc2c[nH]c3ccc(F)cc23)C(=O)N[C@H](C(=O)N[C@H](C(=O)N[C@H](CO)C(=O)O)C(C)(C)O)[C@@H](C)c2ccccc2)NC(=O)[C@H](Cc2ccc(O)cc2)NC(=O)[C@H](C(C)C)NC(=O)[C@H](CC(=O)O)NC(=O)[C@H](CC2CCOCC2)NC1=O)C(=O)O)C(C)C` [compound 519, Ac-hLeu-Y-C-Tbg-G-Glu[&Lys(OH)-Val-Met-AmBz-DOTA]-ThpA-D-V-Y-C-5FW-[(2S, 3S)beta-Me-Phe]-hydroxyVal-dSer-COOH] (Ac-[hLeu]YC[Tle]GE(X6)[Ala(4-THP)]DVYC[Trp(5-F)][X1][Val(3-OH)][dS]-OH; disulfide 3-11) are less than 1 nM and 510 nM.
Regarding `CC(=O)N[C@@H](CCC(C)C)C(=O)N[C@@H](Cc1ccc(O)cc1)C(=O)N[C@H]1CSSC[C@@H](C(=O)N[C@@H](Cc2c[nH]c3ccc(F)cc23)C(=O)N[C@@H](Cc2ccccc2)C(=O)N[C@H](C(=O)O)C(C)(C)O)NC(=O)[C@H](Cc2ccc(O)cc2)NC(=O)[C@H](C(C)C)NC(=O)[C@H](CC(=O)O)NC(=O)[C@H](CC2CCN(C(=O)CN3CCN(CC(=O)O)CCN(CC(=O)O)CCN(CC(=O)O)CC3)CC2)NC(=O)[C@H](CCCCN)NC(=O)CNC(=O)[C@H](C(C)(C)C)NC1=O` [compound 344, Ac-hLeu-Y-C-Tbg-G-K-Pip(DOTA)Ala-D-V-Y-C-5FW-F-hydroxyVal-COOH] (Ac-[hLeu]YC[Tle]GK[Ala(piperidin-4-yl)](DOTA)DVYC[Trp(5-F)]F[Val(3-OH)]-OH; disulfide 3-11), the results for the Kd on human 4lg B7-H3 and on 2Ig B7-H3 were 1 to 10 nM and 6200 nM, respectively.
As for Ac-[hLeu]YC[Tle]GK[Ala(4-THP)]DVYC[1Nal]FP[dK]([PEG4′-DOTA])-NH2 (disulfide 3-11) [Cpd 259], in the assay with B7-H3 on Calu-6 cells, the “% cell associated fraction” value was 25 to 50%.

B1: Cpd 157 (peptide)
peptide: Ac-[hLeu]YC[Tle]GK[4Pal]DVYCWFT[dK](DOTA)-NH2
modifications: disulfide 3-11
SMILES: CC(=O)N[C@@H](CCC(C)C)C(=O)N[C@@H](Cc1ccc(O)cc1)C(=O)N[C@H]1CSSC[C@@H](C(=O)N[C@@H](Cc2c[nH]c3ccccc23)C(=O)N[C@@H](Cc2ccccc2)C(=O)N[C@H](C(=O)N[C@H](CCCCNC(=O)CN2CCN(CC(=O)O)CCN(CC(=O)O)CCN(CC(=O)O)CC2)C(N)=O)[C@@H](C)O)NC(=O)[C@H](Cc2ccc(O)cc2)NC(=O)[C@H](C(C)C)NC(=O)[C@H](CC(=O)O)NC(=O)[C@H](Cc2ccncc2)NC(=O)[C@H](CCCCN)NC(=O)CNC(=O)[C@H](C(C)(C)C)NC1=O
Regarding B1, the “% cell associated fraction” value with B7-H3 on Calu-6 cells is 25 to 50%.
In the case of Ac-[hLeu]YCVGKYDVYC[Trp(5-F)]F[aThr][dK](DOTA)-NH2 (disulfide 3-11) [Cpd 162], the “% cell associated fraction” value with B7-H3 on Calu-6 cells lay within 25 to 50%.
The same measure, in the same setting: the value for Ac-[hLeu]YCVGK[Ala(4-THP)]DVYC[Trp(5-F)]FP[dK]([PEG4′-DOTA])-NH2 (disulfide 3-11) [Cpd 282] was 25 to 50%.

B2: Cpd 179 (peptide)
peptide: Ac-[hLeu]YC[Tle]GKYDVYC[1Nal]FT[dK](DOTA)-NH2
modifications: disulfide 3-11
SMILES: CC(=O)N[C@@H](CCC(C)C)C(=O)N[C@@H](Cc1ccc(O)cc1)C(=O)N[C@H]1CSSC[C@@H](C(=O)N[C@@H](Cc2cccc3ccccc23)C(=O)N[C@@H](Cc2ccccc2)C(=O)N[C@H](C(=O)N[C@H](CCCCNC(=O)CN2CCN(CC(=O)O)CCN(CC(=O)O)CCN(CC(=O)O)CC2)C(N)=O)[C@@H](C)O)NC(=O)[C@H](Cc2ccc(O)cc2)NC(=O)[C@H](C(C)C)NC(=O)[C@H](CC(=O)O)NC(=O)[C@H](Cc2ccc(O)cc2)NC(=O)[C@H](CCCCN)NC(=O)CNC(=O)[C@H](C(C)(C)C)NC1=O
For the molecule B2, in the assay with B7-H3 on Calu-6 cells, the “% cell associated fraction” value was 25 to 50%.

B3: Cpd 288 (peptide)
peptide: Ac-[hLeu]YCVGK[Ala(4-THP)]DVYC[Trp(5-F)]FP[dK](DOTA)-OH
modifications: disulfide 3-11
SMILES: CC(=O)N[C@@H](CCC(C)C)C(=O)N[C@@H](Cc1ccc(O)cc1)C(=O)N[C@H]1CSSC[C@@H](C(=O)N[C@@H](Cc2c[nH]c3ccc(F)cc23)C(=O)N[C@@H](Cc2ccccc2)C(=O)N2CCC[C@H]2C(=O)N[C@H](CCCCNC(=O)CN2CCN(CC(=O)O)CCN(CC(=O)O)CCN(CC(=O)O)CC2)C(=O)O)NC(=O)[C@H](Cc2ccc(O)cc2)NC(=O)[C@H](C(C)C)NC(=O)[C@H](CC(=O)O)NC(=O)[C@H](CC2CCOCC2)NC(=O)[C@H](CCCCN)NC(=O)CNC(=O)[C@H](C(C)C)NC1=O
As to B3, the “% cell associated fraction” value with B7-H3 on Calu-6 cells was in the range of 25 to 50%.
